Assay results from ChEMBL document CHEMBL1275501, “Plasmid-mediated quinolone resistance pump QepA2 in an Escherichia coli isolate from France” (2008).
In brackets after ≈: the same amount, converted by molar mass.

How the values were obtained:
Escherichia coli [1] = experiment: Antimicrobial activity against azide-resistant Escherichia coli J53 harboring pCTX-M plasmid carrying blaCTX-M-15 gene by disk diffusion method; assay type: functional
Escherichia coli [2] = experiment: Antimicrobial activity against Escherichia coli TOP10 by disk diffusion method; assay type: functional
Escherichia coli [3] = experiment: Antimicrobial activity against Escherichia coli TOP10 harboring pQep plasmid carrying qepA2 gene by disk diffusion method; assay type: functional
Escherichia coli [4] = experiment: Antimicrobial activity against azide-resistant Escherichia coli J53 harboring pCTX-M carrying blaCTX-M-15 and pQep plasmid carrying qepA2 gene by disk diffusion method; assay type: functional
Escherichia coli [5] = experiment: Antimicrobial activity against azide-resistant Escherichia coli J53 by disk diffusion method; assay type: functional
Escherichia coli [6] = experiment: Antimicrobial activity against Escherichia coli BicA expressing blaTEM-1, blaCTX-M-15 and qepA2 gene by disk diffusion method
Escherichia coli [7] = experiment: Antimicrobial activity against Escherichia coli BicA expressing blaTEM-1, blaCTX-M-15 and qepA2 gene by disk diffusion method in presence of beta-lactamase inhibitor Tazobactam; assay type: functional
Escherichia coli [8] = experiment: Antimicrobial activity against Escherichia coli TOP10 harboring pQep plasmid carrying qepA2 gene by disk diffusion method in presence of beta-lactamase inhibitor Tazobactam; assay type: functional
Escherichia coli [9] = experiment: Antimicrobial activity against azide-resistant Escherichia coli J53 harboring pCTX-M plasmid carrying blaCTX-M-15 gene by disk diffusion method in presence of beta-lactamase inhibitor Tazobactam; assay type: functional
Escherichia coli [10] = experiment: Antimicrobial activity against azide-resistant Escherichia coli J53 by disk diffusion method in presence of beta-lactamase inhibitor Tazobactam; assay type: functional
Escherichia coli [11] = experiment: Antimicrobial activity against azide-resistant Escherichia coli J53 harboring pCTX-M carrying blaCTX-M-15 and pQep plasmid carrying qepA2 gene by disk diffusion method in presence of beta-lactamase inhibitor Tazobactam; assay type: functional
Escherichia coli [12] = experiment: Antimicrobial activity against Escherichia coli TOP10 by disk diffusion method in presence of beta-lactamase inhibitor Tazobactam; assay type: functional
Escherichia coli [13] = experiment: Antimicrobial activity against Escherichia coli TOP10 by disk diffusion method in presence of beta-lactamase inhibitor clavulanic acid; assay type: functional
Escherichia coli [14] = experiment: Antimicrobial activity against azide-resistant Escherichia coli J53 by disk diffusion method in presence of beta-lactamase inhibitor clavulanic acid; assay type: functional
Escherichia coli [15] = experiment: Antimicrobial activity against Escherichia coli TOP10 harboring pQep plasmid carrying qepA2 gene by disk diffusion method in presence of beta-lactamase inhibitor clavulanic acid; assay type: functional
Escherichia coli [16] = experiment: Antimicrobial activity against Escherichia coli BicA expressing blaTEM-1, blaCTX-M-15 and qepA2 gene by disk diffusion method in presence of beta-lactamase inhibitor clavulanic acid; assay type: functional
Escherichia coli [17] = experiment: Antimicrobial activity against azide-resistant Escherichia coli J53 harboring pCTX-M carrying blaCTX-M-15 and pQep plasmid carrying qepA2 gene by disk diffusion method in presence of beta-lactamase inhibitor clavulanic acid; assay type: functional
Escherichia coli [18] = experiment: Antimicrobial activity against azide-resistant Escherichia coli J53 harboring pCTX-M plasmid carrying blaCTX-M-15 gene by disk diffusion method in presence of beta-lactamase inhibitor clavulanic acid; assay type: functional

Row | Compound | MIC (Escherichia coli [1]) [µg/mL] | MIC (Escherichia coli [2]) [µg/mL] | MIC (Escherichia coli [3]) [µg/mL] | MIC (Escherichia coli [4]) [µg/mL] | MIC (Escherichia coli [5]) [µg/mL] | MIC (Escherichia coli [6]) [µg/mL] | further results
1 | COc1cc(Cc2cnc(N)nc2N)cc(OC)c1OC [TRIMETHOPRIM] | 0.25 (≈ 0.861 µM) | 0.12 (≈ 0.413 µM) | > 256 | > 256 | 0.25 (≈ 0.861 µM) | > 256 | 
2 | NC[C@H]1O[C@H](O[C@H]2[C@H](O)[C@@H](O[C@H]3O[C@H](CO)[C@@H](O)[C@H](N)[C@H]3O)[C@H](N)C[C@@H]2N)[C@H](N)C[C@@H]1O [TOBRAMYCIN] | 0.25 (≈ 0.535 µM) | 0.5 (≈ 1.07 µM) | 0.5 (≈ 1.07 µM) | 0.25 (≈ 0.535 µM) | 0.12 (≈ 0.257 µM) | 0.5 (≈ 1.07 µM) | 
3 | C[C@H]1COc2c(N3CCN(C)CC3)c(F)cc3c(=O)c(C(=O)O)cn1c23.C[C@H]1COc2c(N3CCN(C)CC3)c(F)cc3c(=O)c(C(=O)O)cn1c23.O [LEVOFLOXACIN] |  |  |  |  |  | > 32 | 
4 | CCN[C@@H]1C[C@H](N)[C@@H](O[C@H]2OC(CN)=CC[C@H]2N)[C@H](O)[C@H]1O[C@H]1OC[C@](C)(O)[C@H](NC)[C@H]1O [NETILMICIN] | 0.12 (≈ 0.252 µM) | 0.25 (≈ 0.526 µM) | 0.25 (≈ 0.526 µM) | 0.12 (≈ 0.252 µM) | 0.12 (≈ 0.252 µM) | 0.5 (≈ 1.05 µM) | 
5 | CCn1cc(C(=O)O)c(=O)c2cc(F)c(N3CCN(C)CC3)cc21 [PEFLOXACIN] | 0.06 (≈ 0.18 µM) | 0.03 (≈ 0.09 µM) |  | 0.06 (≈ 0.18 µM) | 0.06 (≈ 0.18 µM) | > 32 | 
6 | CO[C@H]1/C=C/O[C@@]2(C)Oc3c(C)c(O)c4c(O)c(c(/C=N/N5CCN(C)CC5)c(O)c4c3C2=O)NC(=O)/C(C)=C\C=C\[C@H](C)[C@H](O)[C@@H](C)[C@@H](O)[C@@H](C)[C@H](OC(C)=O)[C@@H]1C [RIFAMPIN] | 8 (≈ 9.72 µM) | 16 (≈ 19.4 µM) | 16 (≈ 19.4 µM) | 8 (≈ 9.72 µM) | 8 (≈ 9.72 µM) | 16 (≈ 19.4 µM) | 
7 | CO/N=C(\C(=O)N[C@@H]1C(=O)N2C(C(=O)O)=C(COC(C)=O)CS[C@H]12)c1csc(N)n1 [CEFOTAXIME] | > 32 | 0.06 (≈ 0.132 µM) | 0.06 (≈ 0.132 µM) | > 32 | 0.06 (≈ 0.132 µM) | > 32 | 
8 | CC1(C)S[C@@H]2[C@H](NC(=O)[C@H](C(=O)O)c3ccsc3)C(=O)N2[C@H]1C(=O)O [TICARCILLIN] | > 256 | 4 (≈ 10.4 µM) | > 256 | > 256 | 4 (≈ 10.4 µM) | > 256 | 
9 | CCN1CCN(C(=O)N[C@@H](C(=O)N[C@@H]2C(=O)N3[C@@H]2SC(C)(C)[C@@H]3C(=O)O)c2ccccc2)C(=O)C1=O [PIPERACILLIN] | > 256 | 2 (≈ 3.86 µM) | > 256 | > 256 | 2 (≈ 3.86 µM) | > 256 | MIC (Escherichia coli [7]): 4 µg/mL; MIC (Escherichia coli [8]): 2 µg/mL; MIC (Escherichia coli [9]): 2 µg/mL; MIC (Escherichia coli [10]): 1 µg/mL; MIC (Escherichia coli [11]): 2 µg/mL; MIC (Escherichia coli [12]): 1 µg/mL
10 | CC1COc2c(N3CCN(C)CC3)c(F)cc3c(=O)c(C(=O)O)cn1c23 (centres undefined) [OFLOXACIN] |  |  |  |  |  | > 32 | 
11 | CCn1cc(C(=O)O)c(=O)c2ccc(C)nc21 [NALIDIXIC ACID] | 4 (≈ 17.2 µM) | 1 (≈ 4.31 µM) | 1.5 (≈ 6.46 µM) | 4 (≈ 17.2 µM) | 4 (≈ 17.2 µM) | > 256 | 
12 | CO/N=C(\C(=O)N[C@@H]1C(=O)N2C(C(=O)[O-])=C(C[N+]3(C)CCCC3)CS[C@H]12)c1csc(N)n1 | 16 (≈ 33.3 µM) |  | 0.12 (≈ 0.25 µM) | 16 (≈ 33.3 µM) | 0.01 (≈ 0.0208 µM) | > 32 | 
13 | CC(=O)OCC1=C(C(=O)O)N2C(=O)[C@@H](NC(=O)Cc3cccs3)[C@H]2SC1 [CEPHALOTHIN] | > 256 | 4 (≈ 10.1 µM) | 8 (≈ 20.2 µM) | > 256 | 8 (≈ 20.2 µM) | > 256 | 
14 | Cc1cc(NS(=O)(=O)c2ccc(N)cc2)no1 [SULFAMETHOXAZOLE] | 16 (≈ 63.2 µM) | 16 (≈ 63.2 µM) | > 256 | > 256 | 16 (≈ 63.2 µM) | > 256 | 
15 | COc1c(N2CCNC(C)C2)c(F)cc2c(=O)c(C(=O)O)cn(C3CC3)c12 (centres undefined) [GATIFLOXACIN] | 0.06 (≈ 0.16 µM) | 0.003 (≈ 0.00799 µM) | 0.01 (≈ 0.0266 µM) | 0.12 (≈ 0.32 µM) | 0.01 (≈ 0.0266 µM) | > 32 | 
16 | CCN1CCN(c2cc3c(cc2F)c(=O)c(C(=O)O)cn3C2CC2)CC1 [ENROFLOXACIN] | 0.06 (≈ 0.167 µM) | 0.003 (≈ 0.00835 µM) | 0.008 (≈ 0.0223 µM) | 0.06 (≈ 0.167 µM) | 0.03 (≈ 0.0835 µM) | > 32 | 
17 | COc1c(N2C[C@@H]3CCCN[C@@H]3C2)c(F)cc2c(=O)c(C(=O)O)cn(C3CC3)c12 [MOXIFLOXACIN] |  | 0.004 (≈ 0.00996 µM) | 0.01 (≈ 0.0249 µM) | 0.12 (≈ 0.299 µM) |  | > 32 | 
18 | CC1(C)S[C@@H]2[C@H](NC(=O)[C@H](N)c3ccc(O)cc3)C(=O)N2[C@H]1C(=O)O [AMOXICILLIN] | > 256 | 4 (≈ 10.9 µM) | > 256 | > 256 | 4 (≈ 10.9 µM) | > 256 | MIC (Escherichia coli [13]): 4 µg/mL; MIC (Escherichia coli [14]): 4 µg/mL; MIC (Escherichia coli [15]): 16 µg/mL; MIC (Escherichia coli [16]): 16 µg/mL; MIC (Escherichia coli [17]): 16 µg/mL; MIC (Escherichia coli [18]): 16 µg/mL
19 | CC(C)(O/N=C(\C(=O)N[C@@H]1C(=O)N2C(C(=O)[O-])=C(C[n+]3ccccc3)CS[C@H]12)c1csc(N)n1)C(=O)O [CEFTAZIDIME] | 16 (≈ 29.3 µM) | 0.06 (≈ 0.11 µM) | 0.12 (≈ 0.22 µM) | 16 (≈ 29.3 µM) | 0.12 (≈ 0.22 µM) | > 32 | 
20 | O=C(O)c1cn(C2CC2)c2cc(N3CCNCC3)c(F)cc2c1=O [CIPROFLOXACIN] |  |  |  |  |  | > 32 | 
21 | CN(C)[C@@H]1C(O)=C(C(N)=O)C(=O)[C@@]2(O)C(O)=C3C(=O)c4c(O)cccc4[C@@](C)(O)[C@H]3C[C@@H]12 [TETRACYCLINE] | 2 (≈ 4.5 µM) | 2 (≈ 4.5 µM) | > 256 | 2 (≈ 4.5 µM) | 2 (≈ 4.5 µM) | > 256 | 
22 | GENTAMICIN | 0.12 | 0.25 | 0.25 | 0.12 | 0.12 |  | 
23 | CCn1cc(C(=O)O)c(=O)c2cc(F)c(N3CCNCC3)cc21 [NORFLOXACIN] | 0.06 (≈ 0.188 µM) | 0.03 (≈ 0.0939 µM) | 0.5 (≈ 1.57 µM) | 1 (≈ 3.13 µM) | 0.06 (≈ 0.188 µM) | > 256 | 
24 | NCC[C@H](O)C(=O)N[C@@H]1C[C@H](N)[C@@H](O[C@H]2O[C@H](CN)[C@@H](O)[C@H](O)[C@H]2O)[C@H](O)[C@H]1O[C@H]1O[C@H](CO)[C@@H](O)[C@H](N)[C@H]1O [AMIKACIN] | 1 (≈ 1.71 µM) | 1 (≈ 1.71 µM) | 1 (≈ 1.71 µM) | 1 (≈ 1.71 µM) | 1 (≈ 1.71 µM) | 2 (≈ 3.42 µM) | 
25 | C[C@H]1[C@H](NC(=O)/C(=N\OC(C)(C)C(=O)O)c2csc(N)n2)C(=O)N1S(=O)(=O)O [AZTREONAM] | 16 (≈ 36.7 µM) |  |  | 16 (≈ 36.7 µM) |  | > 32 | 
26 | O=C(N[C@H](CO)[C@H](O)c1ccc([N+](=O)[O-])cc1)C(Cl)Cl [CHLORAMPHENICOL] | 8 (≈ 24.8 µM) | 4 (≈ 12.4 µM) | > 256 | > 256 | 8 (≈ 24.8 µM) | > 256 | 
27 | C[C@@H](O)[C@H]1C(=O)N2C(C(=O)O)=C(SCCNC=N)C[C@H]12 [IMIPENEM ANHYDROUS] | 0.25 (≈ 0.835 µM) |  |  | 0.25 (≈ 0.835 µM) | 0.06 (≈ 0.2 µM) | 0.5 (≈ 1.67 µM) | 
